We go through twelve molecules from ChEMBL document CHEMBL1201862, “PubChem BioAssay data set” (2004).

Some test systems named below: HCT-15; U-251; Malme-3M; SNB-75; NCI-H522; HT-29; DU-145; CCRF-CEM; OVCAR-5; NCI-H226; Hs-578T; HL-60; SK-MEL-2; IGROV-1; COLO 205; LOX IMVI; BT-549; HOP-92.
What all share (assay): growth of human tumour cells (NCI), 48 h

Each structure is given as a SMILES string.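 Assay format: 96-well plates, 48-hour exposure. GI50 marks 50% less growth.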 Calls of active or inactive are those of the source. No stated cut-off is given here; in the data, active = GI50 up to about 1.1 µM and inactive = higher.

With `CC1(C)CCCCC1/C=C/C(CC(O)(C(F)(F)F)C(F)(F)F)=N\Nc1ccc([N+](=O)[O-])cc1[N+](=O)[O-]` (stereo not drawn), the GI50 with HCT-15 is 1.32 µM; in the assay with U-251 it was 2.33 µM (inactive); with Malme-3M, 4.51 µM (inactive); in the assay with SNB-75, 1.31 µM (inactive); in the assay on NCI-H522 it was 0.49 µM (active); with HT-29, 1.76 µM (inactive). Further, the GI50 with DU-145 was 2.52 µM (inactive); with CCRF-CEM, 0.662 µM (active); with OVCAR-5 it was 1.57 µM (inactive); with NCI-H226 it was 0.498 µM (active); with Hs-578T it was 0.575 µM (active); in the assay with HL-60, 1.38 µM (inactive). Also, the GI50 in the assay with SK-MEL-2 was 3.18 µM (inactive); in the assay with IGROV-1, 0.514 µM (active); in the assay on COLO 205 it was 1.18 µM (inactive); in the assay with LOX IMVI it was 1.78 µM (inactive); in the assay with BT-549, 0.376 µM (active).

For the molecule `CCCC(CC)c1c(O)c(O)c(C(CC)CCC)c(C(CC)CCC)c1C(CC)CCC` (stereo not drawn), the GI50 is above 10 µM in the assay with HCT-15; > 10 µM (inactive) in the assay with HOP-92; > 10 µM (inactive) with U-251; > 10 µM (inactive) in the assay on Malme-3M; > 10 µM (inactive) in the assay with NCI-H522; > 10 µM (inactive) in the assay with HT-29. Also, the GI50 with DU-145, in the assay on CCRF-CEM, in the assay on OVCAR-5, in the assay on NCI-H226, in the assay with Hs-578T and in the assay with HL-60 was > 10 µM (inactive) throughout. The GI50 in the assay with SK-MEL-2, in the assay on IGROV-1, in the assay on COLO 205, in the assay on LOX IMVI and in the assay with BT-549 was > 10 µM (inactive) throughout.

Take `O=C1OC(c2ccccc2)N/C1=C\c1ccc2c(c1)OCO2` (stereo not drawn): the GI50 with HCT-15 was above 100 µM; in the assay with HOP-92, > 100 µM (inactive); in the assay with U-251, 59.3 µM (inactive); with SNB-75 it was 98.9 µM (inactive); in the assay with NCI-H522, 35.6 µM (inactive); in the assay on HT-29, > 100 µM (inactive). Further, the GI50 was > 100 µM (inactive) in the assay with DU-145; 33.6 µM (inactive) in the assay with CCRF-CEM; > 100 µM (inactive) in the assay with OVCAR-5; 34 µM (inactive) in the assay on NCI-H226; 72.9 µM (inactive) in the assay on Hs-578T; 0.219 µM (active) with HL-60. Moreover, the GI50 in the assay with SK-MEL-2 is > 77.1 µM (inactive); with IGROV-1 it was 48.6 µM (inactive); in the assay with COLO 205, > 100 µM (inactive); with LOX IMVI it was 53.3 µM (inactive); in the assay with BT-549, > 100 µM (inactive).

As to `CC(=O)O[C@H]1CCC2[C@@H]3CCC4NC(=O)C(C#N)C[C@]4(C)C3CC[C@@]21C` (stereo partly drawn), the GI50 in the assay on HCT-15 was above 10 µM; in the assay on HOP-92, > 10 µM (inactive); with U-251, > 10 µM (inactive); with Malme-3M it was > 10 µM (inactive); with HT-29, > 10 µM (inactive); in the assay on DU-145, > 10 µM (inactive). For the same molecule, the GI50 in the assay on CCRF-CEM was > 10 µM (inactive); in the assay with OVCAR-5, > 10 µM (inactive); with NCI-H226, > 10 µM (inactive); in the assay on Hs-578T, 3.96 µM (inactive); in the assay with HL-60, > 10 µM (inactive); in the assay with SK-MEL-2, > 10 µM (inactive). Also, the GI50 in the assay on IGROV-1, in the assay on COLO 205, with LOX IMVI and in the assay with BT-549 was > 10 µM (inactive) each time.

For `Cc1ccc(O)c(C2=CC(c3cccc(Cl)c3)SC(=N)N2)c1` (stereo not drawn), the GI50 with HCT-15 was 18.9 µM; in the assay on HOP-92 it was 10.8 µM (inactive); with U-251 it was 18.3 µM (inactive); in the assay with Malme-3M, 24.2 µM (inactive); in the assay with NCI-H522, 16.1 µM (inactive); in the assay on HT-29, 20.8 µM (inactive). Moreover, the GI50 in the assay on DU-145 is 46.5 µM (inactive); in the assay with CCRF-CEM, 20.1 µM (inactive); in the assay on OVCAR-5, 26.2 µM (inactive); with NCI-H226, 16.6 µM (inactive); with Hs-578T, 19.9 µM (inactive); in the assay with HL-60 it was 30 µM (inactive). In addition, the GI50 was 18.2 µM (inactive) in the assay with SK-MEL-2; 19.1 µM (inactive) with IGROV-1; 16.9 µM (inactive) in the assay on COLO 205; 18.6 µM (inactive) in the assay with LOX IMVI; 31.6 µM (inactive) in the assay with BT-549.

Turning to `CC(=O)O[C@@H]1C=C(C)[C@H](CBr)O[C@@]2(C)CC[C@H](Br)C(C)(C)[C@H]12`, the GI50 with HCT-15 is above 100 µM; with HOP-92, > 100 µM (inactive); in the assay on U-251, > 100 µM (inactive); in the assay with SNB-75, > 100 µM (inactive); in the assay with NCI-H522 it was 38.2 µM (inactive); with HT-29, > 100 µM (inactive). Moreover, the GI50 in the assay with DU-145 is > 100 µM (inactive); with CCRF-CEM, 19.4 µM (inactive); with OVCAR-5, > 100 µM (inactive); in the assay with NCI-H226, > 100 µM (inactive); with Hs-578T, > 100 µM (inactive); in the assay on HL-60, 91.2 µM (inactive). Further, the GI50 in the assay on SK-MEL-2, with IGROV-1, in the assay on COLO 205, in the assay with LOX IMVI and with BT-549 was > 100 µM (inactive) in each case.

For the molecule `Cc1cn(CCOCCOC(=O)NC(CCCNC(=N)N)C(=O)O)c(=O)[nH]c1=O` (stereo not drawn), the GI50 in the assay on HCT-15 was above 100 µM; in the assay with HOP-92, > 100 µM (inactive); in the assay on U-251, > 100 µM (inactive); with SNB-75 it was > 100 µM (inactive); in the assay on HT-29, > 100 µM (inactive); in the assay with DU-145 it was > 100 µM (inactive). In addition, the GI50 in the assay with CCRF-CEM, in the assay on OVCAR-5, in the assay with NCI-H226, in the assay on Hs-578T, in the assay on HL-60 and in the assay on SK-MEL-2 was > 100 µM (inactive) throughout. The GI50 with IGROV-1, with COLO 205, in the assay with LOX IMVI and in the assay on BT-549 was > 100 µM (inactive) each time.

For the molecule `COc1cccc(/C=N/[N+](C)(C)C)c1O`, the GI50 in the assay on HCT-15 is above 10 µM; in the assay on U-251, > 10 µM (inactive); with Malme-3M, > 10 µM (inactive); in the assay with SNB-75 it was > 10 µM (inactive); with NCI-H522 it was > 10 µM (inactive); with HT-29, > 10 µM (inactive). In addition, the GI50 with DU-145, in the assay with CCRF-CEM, with OVCAR-5, in the assay with NCI-H226, in the assay with Hs-578T and with HL-60 was > 10 µM (inactive) in each case. The GI50 with SK-MEL-2, in the assay on IGROV-1, in the assay with COLO 205, in the assay with LOX IMVI and in the assay with BT-549 was > 10 µM (inactive) in each case.

Take `O=CC1C[C@@H](N2C(=O)O[C@@H](c3ccccc3)[C@H]2c2ccccc2)[C@@H]1COCc1ccccc1` (stereo partly drawn): the GI50 is 18 µM with HCT-15; 15 µM (inactive) in the assay with HOP-92; 16.6 µM (inactive) in the assay on U-251; 17 µM (inactive) in the assay with Malme-3M; 16.4 µM (inactive) in the assay with NCI-H522; 17.9 µM (inactive) in the assay with HT-29. Also, the GI50 in the assay with DU-145 is 17.7 µM (inactive); in the assay on OVCAR-5, 22.4 µM (inactive); with NCI-H226 it was 20.2 µM (inactive); in the assay on Hs-578T it was 25.6 µM (inactive); with HL-60 it was 18.9 µM (inactive); with SK-MEL-2, 16.4 µM (inactive). For the same molecule, the GI50 in the assay with IGROV-1 is 18.2 µM (inactive); in the assay on COLO 205 it was 19.9 µM (inactive); in the assay with LOX IMVI it was 17.7 µM (inactive); in the assay on BT-549, 20.3 µM (inactive).

On to `COc1cc(/C=C2\N=C(c3ccccc3)N(c3ccc(C(=O)c4ccccc4)cc3N3C(=O)/C(=C/c4ccc(O)c(OC)c4)N=C3c3ccccc3)C2=O)ccc1O`, for which the GI50 in the assay with HCT-15 was 5.28 µM; in the assay on HOP-92, 22.7 µM (inactive); with U-251, 9.79 µM (inactive); in the assay on SNB-75, 18.8 µM (inactive); with HT-29 it was 20.3 µM (inactive); in the assay on DU-145, 17 µM (inactive). In addition, the GI50 was 5.45 µM (inactive) in the assay on CCRF-CEM; 32.4 µM (inactive) in the assay on OVCAR-5; 10.1 µM (inactive) with Hs-578T; 5.09 µM (inactive) in the assay on HL-60; 13.4 µM (inactive) in the assay on SK-MEL-2; 7.35 µM (inactive) in the assay with IGROV-1. Also, the GI50 with COLO 205 was 17.9 µM (inactive); with LOX IMVI, 10.5 µM (inactive); in the assay on BT-549, 18.7 µM (inactive).

Consider `CCOP(=O)(CN1CCNCCNCC1)OCC`, for which the GI50 with HCT-15 is above 100 µM; in the assay on HOP-92 it was > 100 µM (inactive); in the assay with U-251, > 100 µM (inactive); in the assay on SNB-75, 26.6 µM (inactive); in the assay on NCI-H522, > 100 µM (inactive); in the assay with HT-29, > 100 µM (inactive). For the same molecule, the GI50 in the assay on DU-145 was > 100 µM (inactive); in the assay with CCRF-CEM, > 100 µM (inactive); in the assay on OVCAR-5, > 100 µM (inactive); in the assay on NCI-H226, > 100 µM (inactive); in the assay with Hs-578T, > 100 µM (inactive); in the assay on HL-60, 92.7 µM (inactive). The GI50 with SK-MEL-2, in the assay on IGROV-1, in the assay with COLO 205, in the assay with LOX IMVI and in the assay on BT-549 was > 100 µM (inactive) in each case.

As for `COc1ccc(C(C)c2cc3c(cc2O)OCO3)cc1` (stereo not drawn), the GI50 with HCT-15 was 7.33 µM; in the assay with HOP-92, 16.3 µM (inactive); in the assay on U-251 it was 15.1 µM (inactive); in the assay with SNB-75 it was 20.3 µM (inactive); in the assay with NCI-H522, 11.4 µM (inactive); with HT-29, 12.6 µM (inactive). Besides, the GI50 in the assay on DU-145 is 18.6 µM (inactive); in the assay with OVCAR-5, 20.6 µM (inactive); with NCI-H226, 19.7 µM (inactive); in the assay on Hs-578T, 20.5 µM (inactive); in the assay on HL-60, 13.2 µM (inactive); in the assay with SK-MEL-2, 14.9 µM (inactive). In addition, the GI50 in the assay on IGROV-1 is 15.8 µM (inactive); in the assay on COLO 205 it was 14.3 µM (inactive); in the assay on LOX IMVI, 13.2 µM (inactive); in the assay with BT-549, 16.7 µM (inactive).
